Laboratory results as given in US5124326A, “Pharmaceutically efficacious pteridine derivatives” (Roehm GmbH Chemische Fabrik, priority 1989, dated 1992).
≈ marks a conversion by molar mass, not a printed value. Read-outs that look alike come from different tables or passages of the source.

Tests used:
[1] = distribution coefficient log P; assay type: physicochemical; conditions: for logD: read-out: lipophilicity log P; for logP: from the preparation examples
[2] = solubility in isotonic phosphate buffer pH 7.4; assay type: physicochemical; conditions: for solubility: aqueous buffer
urine volume, Na^+, K^+ = assay: diuresis test in rats (urine volume, Na+, K+ excretion; dose/response, ED50); assay type: in vivo, Male Wister rats; conditions: for ED50: Rattus norvegicus; for ED50 / Na^+/K^+ quotient i.v. / Na^+/K^+ quotient p.o.: rats
Protocol: The compounds of formula I and their acid addition salts, with physiologically tolerable acids are quite suitable for peroral and intravenous medication. The diuresis tests were conducted according to the following method. Diuresis Tests/Method Male Wister rats, weighing approximately 130 g, were used in the tests. Food had been withdrawn from the rats for 18 hours. Immediately before the intravenous administration of the test substance, they were fed orally a quantity of 20 ml/kg of 0.9% NaCl solution. […] Under a slight anesthesia, administration was by the caudal vein. Generally six experimental animals were used per test. The peroral administration was by means of probang in the gastrointestinal region. The substances were administered in a mixture comprising Tylose® and physiological NaCl solution, which serves simultaneously as the hydration agent ([…]). The animals were placed individually into diuresis cages and urine was collected after 2.5 or 3 or 6 hours. The electrolytes (Na^+ K^+, Mg^+2) were determined by means of flame photometry and by means of atomic absorption measurement with the FL6 automatic electrolyte equipment from Zeiss/Oberkochen. Curves for dose/response correlations were obtained with the aid of non-linear regression analysis with the NONLIN computer program by C. Daniel and F. S. Wood in "Fitting Equations to Data", J. Wiley & Sons, New York, 1980. Thus, the characteristic value ED50 (=potency) applied to determine the diuretic efficacy is defined as the quantity of active substance per kg of body weight, which is necessary for the semi-maximum effect.

[3] = resorption rate from renal recovery following p.o. and i.v. administration; assay type: in vivo, Male Wister rats; conditions: rat, urine, po; quotient of urinary recovery p.o./i.v.; rats
Protocol: Male Wister rats, weighing approximately 130 g, were used in the tests. Food had been withdrawn from the rats for 18 hours. Immediately before the intravenous administration of the test substance, they were fed orally a quantity of 20 ml/kg of 0.9% NaCl solution. […] Under a slight anesthesia, administration was by the caudal vein. Generally six experimental animals were used per test. The peroral administration was by means of probang in the gastrointestinal region. The substances were administered in a mixture comprising Tylose® and physiological NaCl solution, which serves simultaneously as the hydration agent ([…]). The animals were placed individually into diuresis cages and urine was collected after 2.5 or 3 or 6 hours. The electrolytes (Na^+ K^+, Mg^+2) were determined by means of flame photometry and by means of atomic absorption measurement with the FL6 automatic electrolyte equipment from Zeiss/Oberkochen. The renal recovery of the test substances serves as a means of measuring resorption following oral administration. The resorption rate is determined from the quotients of the recovery rates following peroral (p.o.) and intravenous (i.v.) administration, as given in percent. The recovery rate notes the renally excreted quantity based on the medicated quantity of the active substances. The concentration of the test substances in the urine of the animals is determined in accordance with thin-layer chromatographic separation by means o spectrophotometry.

metabolization = conditions: in vivo
[4] = isotonic phosphate buffer, pH = 7.4, read-out: solubility
[5] = iv, duration 2.5 h, read-out: ED50 (potency), urine K^+
[6] = iv, duration 2.5 h, read-out: ED50 (potency), urine Na^+
[7] = iv, duration 2.5 h, read-out: ED50 (potency), urine volume
[8] = iv, duration 6 h, read-out: ED50 (potency), urine K^+
[9] = iv, duration 6 h, read-out: ED50 (potency), urine Na^+
[10] = iv, duration 6 h, read-out: ED50 (potency), urine volume
[11] = po, duration 3 h, read-out: ED50 (potency), urine K^+
[12] = po, duration 3 h, read-out: ED50 (potency), urine Na^+
[13] = po, duration 3 h, read-out: ED50 (potency), urine volume
[14] = po, duration 6 h, read-out: ED50 (potency), urine K^+
[15] = po, duration 6 h, read-out: ED50 (potency), urine Na^+
[16] = po, duration 6 h, read-out: ED50 (potency), urine volume
[17] = isotonic phosphate buffer pH 7.4, read-out: solubility in isotonic phosphate buffer

Row | SMILES | solubility [2, 4] | Fa [3] | logD ([1]; pH = 7.4) | solubility [2, 17] | ED50 (urine volume, Na^+, K^+; [5]) | ED50 (urine volume, Na^+, K^+; [6]) | ED50 (urine volume, Na^+, K^+; [7]) | ED50 (urine volume, Na^+, K^+; [8]) | ED50 (urine volume, Na^+, K^+; [9]) | ED50 (urine volume, Na^+, K^+; [10]) | Na^+/K^+ quotient i.v. (urine volume, Na^+, K^+) | Na^+/K^+ quotient p.o. (urine volume, Na^+, K^+) | also measured
1 | CC1CCN(Cc2ccc(-c3nc4c(N)nc(N)nc4nc3N)cc2)CC1 [compound IE, 2,4,7-Triamino-6-[4-(4-methylpiperidinomethyl)phenyl]pteridine] | 139 µg/mL (≈ 381 µM) | 31% | 0.89 |  | 5.4 µmol/kg | 3.13 µmol/kg | 2.65 µmol/kg | 5.9 µmol/kg | 12.7 µmol/kg | 8.24 µmol/kg | 27 | 14 | increased solubility in comparison to Triamterene ([2]; pH 7.4 in phosphate buffer, vs Triamterene): 6.5 fold; ED50 (urine volume, Na^+, K^+; [11]): 2.16 µmol/kg; ED50 (urine volume, Na^+, K^+; [12]): 9.49 µmol/kg; ED50 (urine volume, Na^+, K^+; [13]): 11.8 µmol/kg; ED50 (urine volume, Na^+, K^+; [14]): 2.41 µmol/kg; ED50 (urine volume, Na^+, K^+; [15]): 12.7 µmol/kg; ED50 (urine volume, Na^+, K^+; [16]): 14.8 µmol/kg; potassium-saving potency in comparison to Triamterene (urine volume, Na^+, K^+; following peroral administration, vs Triamterene): higher potassium-saving potency; metabolization (metabolization): No metabolization
2 | CC1CCCC(C)N1Cc1ccc(-c2nc3c(N)nc(N)nc3nc2N)cc1 (stereo not drawn) [compound IF, 2,4,7-Triamino-6-[4-(2,6-dimethylpiperidinomehyl)phenyl]pteridine] | 25 µg/mL (≈ 66.1 µM) | 33% | 0.68 |  |  |  |  |  |  |  | 21 | 15 | 
3 | CN(C)CCCc1ccc(-c2nc3c(N)nc(N)nc3nc2N)cc1 [compound IH, 2,4,7-Triamino-6-[40(3-dimethylaminopropyl)phenyl]pteridine] |  | 3% | -0.6 | 2000 µg/mL (≈ 5910 µM) | 1.41 µmol/kg | 1.44 µmol/kg | 1.23 µmol/kg | 1.3 µmol/kg | 1.83 µmol/kg | 1.7 µmol/kg | 12 | 7 | logP [1]: -0.6
4 | CN(C)CCc1ccc(-c2nc3c(N)nc(N)nc3nc2N)cc1 [compound IJ, 2,4,7-Triamino-6-[4-(2-dimethylaminoethyl)phenyl]pteridine] |  | 4% | -0.59 | 2200 µg/mL (≈ 6780 µM) | 1.04 µmol/kg | 1.63 µmol/kg | 2.36 µmol/kg | 2.6 µmol/kg | 1.64 µmol/kg | 2.61 µmol/kg | 10 | 6 | logP [1]: -0.59
5 | CC1CC(C)CN(CCCc2ccc(-c3nc4c(N)nc(N)nc4nc3N)cc2)C1 (stereo not drawn) [compound IM, 2,4,7-Triamino-6-[4-(3-(3,5-dimethylpiperidino)propyl)phenyl]pteridine] |  | 7% | 1.18 | 135 µg/mL (≈ 332 µM) |  |  |  |  |  |  | 128 | 27 | logP [1]: 1.18

Further lines, with some results ahead:

Row | solubility [2, 4] | Fa [3] | logD ([1]; pH = 7.4) | solubility [2, 17] | SMILES | ED50 (urine volume, Na^+, K^+; [5]) | ED50 (urine volume, Na^+, K^+; [6]) | ED50 (urine volume, Na^+, K^+; [7]) | ED50 (urine volume, Na^+, K^+; [8]) | ED50 (urine volume, Na^+, K^+; [9]) | ED50 (urine volume, Na^+, K^+; [10]) | Na^+/K^+ quotient i.v. (urine volume, Na^+, K^+) | Na^+/K^+ quotient p.o. (urine volume, Na^+, K^+) | also measured
6 | 21 µg/mL (≈ 82.9 µM) | ~80% |  |  | Nc1nc(N)c2nc(-c3ccccc3)c(N)nc2n1 [Triamterene, 2,4,7-triamino-6-phenylpteridine, reference compound] | 11.2 µmol/kg | 2.38 µmol/kg | 13.9 µmol/kg | 9.79 µmol/kg | 10.6 µmol/kg | 10.6 µmol/kg | 8 | 6 | lipophilicity log P ([1]; pH = 7.4): 1.26; ED50 (urine volume, Na^+, K^+; [11]): 3.38 µmol/kg; ED50 (urine volume, Na^+, K^+; [12]): 6.17 µmol/kg; ED50 (urine volume, Na^+, K^+; [13]): 6.4 µmol/kg; ED50 (urine volume, Na^+, K^+; [14]): 8.39 µmol/kg; ED50 (urine volume, Na^+, K^+; [15]): 5.06 µmol/kg; ED50 (urine volume, Na^+, K^+; [16]): 6.57 µmol/kg
7 | 580 µg/mL (≈ 1870 µM) | 11% | -0.36 |  | CN(C)Cc1ccc(-c2nc3c(N)nc(N)nc3nc2N)cc1 [compound IA, 2,4,7-Triamino-6-[4-(dimethylaminomethyl)phenyl]pteridine] |  |  |  |  |  |  | 9 | 18 | 
8 |  | < 1% | 2.7 | 1.1 µg/mL (≈ 2.5 µM) | Nc1nc(N)c2nc(-c3ccc(CN4CCC(Cc5ccccc5)CC4)cc3)c(N)nc2n1 [compound IB, 2,4,7-Triamino-6-[4-(4-benzylpiperidinomethyl)phenyl]pteridine] |  |  |  |  |  |  | 17 | 4 | 
9 | 1.9 µg/mL (≈ 4.58 µM) |  | 3.2 |  | CC(C)N(Cc1ccccc1)Cc1ccc(-c2nc3c(N)nc(N)nc3nc2N)cc1 [compound IC, 2,4,7-Triamino-6-[4-(N-benzyl-N-isopropylaminomethyl)phenyl]pteridien] |  |  |  |  |  |  | 7 | 13 | metabolization (metabolization): is metabolized quantitatively
10 | 76 µg/mL (≈ 217 µM) | 19% | 0.2 |  | Nc1nc(N)c2nc(-c3ccc(CN4CCCCC4)cc3)c(N)nc2n1 [compound ID, 2,4,7-Triamino-6-[4-(piperidinomethyl)phenyl]pteridine] |  |  |  |  |  |  | 37 | 7 | 
11 | 13 µg/mL (≈ 34.3 µM) | 23% | 1.74 |  | CC1CC(C)CN(Cc2ccc(-c3nc4c(N)nc(N)nc4nc3N)cc2)C1 (stereo not drawn) [compound IG, 2,4,7-Triamino-6-[4-(3,5-dimethylpiperidinomethyl)phenyl]pteridine] |  |  |  |  |  |  | 39 | 7 | 
12 | 1500 µg/mL (≈ 3690 µM) | 3% | 0.04 |  | CC1CCCC(C)N1CCCc1ccc(-c2nc3c(N)nc(N)nc3nc2N)cc1 (stereo not drawn) [compound IL, 2,4,7-Triamino-6-[4-(3-(2,6-dimethylpiperidino)propyl)phenyl]pteridine] |  |  |  |  |  |  | 170 | 8 | 
